Measurements: article PMC10614625 (Proceedings of the National Academy of Sciences of the …, 2023)

Experiments:
DcitGLNT1 [1] = target: T1, DcitGLNT1 (Diaphorina citri, UniProt A0A2L0RID4); assay: two-electrode voltage clamp, inward current in Xenopus oocytes; format: cell-based
T1 sequence (A0A2L0RID4 1-508): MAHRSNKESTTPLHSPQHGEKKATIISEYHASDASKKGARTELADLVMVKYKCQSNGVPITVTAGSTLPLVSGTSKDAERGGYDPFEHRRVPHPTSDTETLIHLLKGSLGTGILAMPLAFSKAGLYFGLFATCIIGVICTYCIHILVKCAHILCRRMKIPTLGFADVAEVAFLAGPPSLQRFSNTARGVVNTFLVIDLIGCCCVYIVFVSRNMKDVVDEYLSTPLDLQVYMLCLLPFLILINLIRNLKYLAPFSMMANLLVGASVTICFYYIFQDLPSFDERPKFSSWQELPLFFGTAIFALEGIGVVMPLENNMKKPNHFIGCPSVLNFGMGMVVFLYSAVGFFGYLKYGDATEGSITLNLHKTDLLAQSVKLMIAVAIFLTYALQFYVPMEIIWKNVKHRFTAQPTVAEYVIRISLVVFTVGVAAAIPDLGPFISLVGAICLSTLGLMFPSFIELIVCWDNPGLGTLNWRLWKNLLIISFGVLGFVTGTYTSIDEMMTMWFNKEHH

PhumGLNT1 [2] = target: T2, PhumGLNT1 (Pediculus humanus, UniProt A0A2L0RIB5); assay: as above; format: cell-based
T2 sequence (A0A2L0RIB5 1-513): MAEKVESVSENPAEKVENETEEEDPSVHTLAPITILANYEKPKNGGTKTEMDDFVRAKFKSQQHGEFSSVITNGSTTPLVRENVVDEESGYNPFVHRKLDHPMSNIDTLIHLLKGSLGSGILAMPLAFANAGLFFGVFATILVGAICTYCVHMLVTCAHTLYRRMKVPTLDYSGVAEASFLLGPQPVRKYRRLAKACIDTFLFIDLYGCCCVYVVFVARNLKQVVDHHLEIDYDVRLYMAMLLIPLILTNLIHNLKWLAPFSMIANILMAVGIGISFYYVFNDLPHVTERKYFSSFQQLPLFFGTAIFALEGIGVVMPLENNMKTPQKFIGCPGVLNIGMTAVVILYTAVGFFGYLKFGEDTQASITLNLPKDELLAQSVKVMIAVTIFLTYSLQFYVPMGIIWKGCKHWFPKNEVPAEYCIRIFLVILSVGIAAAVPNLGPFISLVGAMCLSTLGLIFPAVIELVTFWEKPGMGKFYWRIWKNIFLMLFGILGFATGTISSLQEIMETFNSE

ApGLNT1 [3] = target: T3, ApGLNT1 (Acyrthosiphon pisum, UniProt F8RL01); assay: as above; format: cell-based
T3 sequence (F8RL01 1-500): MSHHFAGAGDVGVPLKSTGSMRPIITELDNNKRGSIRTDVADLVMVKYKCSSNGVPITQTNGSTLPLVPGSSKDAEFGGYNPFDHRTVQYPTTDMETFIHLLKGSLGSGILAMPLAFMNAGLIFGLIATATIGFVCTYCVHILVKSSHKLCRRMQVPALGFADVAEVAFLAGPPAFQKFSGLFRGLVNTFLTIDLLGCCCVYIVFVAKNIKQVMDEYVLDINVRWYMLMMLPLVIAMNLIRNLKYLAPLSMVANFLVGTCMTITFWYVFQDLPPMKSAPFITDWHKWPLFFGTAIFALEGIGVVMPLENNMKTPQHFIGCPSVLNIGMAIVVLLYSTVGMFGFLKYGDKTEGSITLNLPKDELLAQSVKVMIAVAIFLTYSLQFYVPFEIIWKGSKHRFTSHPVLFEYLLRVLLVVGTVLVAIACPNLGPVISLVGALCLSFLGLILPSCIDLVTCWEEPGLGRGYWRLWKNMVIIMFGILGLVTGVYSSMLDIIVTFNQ

PcitGLNT1 [4] = target: T4, PcitGLNT1 (Planococcus citri, UniProt A0A2L0RIC1); assay: as above; format: cell-based
T4 sequence (A0A2L0RIC1 1-502): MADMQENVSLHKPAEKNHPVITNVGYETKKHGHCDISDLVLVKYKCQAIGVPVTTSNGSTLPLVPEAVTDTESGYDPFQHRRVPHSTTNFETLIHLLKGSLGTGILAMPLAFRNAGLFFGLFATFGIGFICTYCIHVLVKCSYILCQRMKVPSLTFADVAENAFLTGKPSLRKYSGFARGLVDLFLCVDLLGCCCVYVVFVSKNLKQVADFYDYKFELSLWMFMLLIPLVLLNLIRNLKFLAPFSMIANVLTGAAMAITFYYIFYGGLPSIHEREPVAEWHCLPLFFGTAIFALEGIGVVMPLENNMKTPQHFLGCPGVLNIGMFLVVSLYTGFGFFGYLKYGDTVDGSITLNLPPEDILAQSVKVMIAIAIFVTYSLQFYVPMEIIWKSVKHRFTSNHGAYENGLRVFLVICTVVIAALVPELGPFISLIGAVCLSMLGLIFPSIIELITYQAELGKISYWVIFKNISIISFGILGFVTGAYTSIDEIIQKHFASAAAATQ

PcitGLNT1 [5] = target: T4, PcitGLNT1; assay: cell-based
DcitGLNT1 [6] = target: T1, DcitGLNT1; assay: cell-based
ApGLNT1 [7] = target: T3, ApGLNT1; assay: cell-based
PhumGLNT1 [8] = target: T2, PhumGLNT1; assay: cell-based

Row | EC50 (DcitGLNT1 [1]) [mM] | EC50 (PhumGLNT1 [2]) [mM] | EC50 (ApGLNT1 [3]) [mM] | EC50 (PcitGLNT1 [4]) [mM] | Structure (SMILES) | IC50 (PcitGLNT1 [5]) [mM] | IC50 (DcitGLNT1 [6]) [mM] | IC50 (ApGLNT1 [7]) [mM] | IC50 (PhumGLNT1 [8]) [mM]
1 | 35.2 ± 18.5 | 1.5 ± 0.2 | 5.7 ± 0.8 | 2.1 ± 0.2 | NC(=O)CC[C@H](N)C(=O)O [glutamine] |  |  |  | 
2 |  |  |  |  | N=C(N)NCCC[C@H](N)C(=O)O [arginine] | 2.5 ± 0.2 | 6.1 ± 0.8 | 5.1 ± 0.9 | 2.8 ± 2
